Test results reported in PubChem BioAssay (NCI).
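96-well plates; 48 h exposure; 5 concentrations. Endpoints by linear interpolation between flanking doses. Not reached: highest tested concentration assigned. Abbreviation: GI50, concentration required for 50% inhibition of growth. TGI: concentration producing complete growth inhibition.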

What follows are molecules tested on NCI-H460 lung (assay: NCI-60 cell line screen, 48 h).
In the case of c1ccc(C(c2ccccc2)c2cccnc2)cc1, the TGI was over 100 µM. Work on C1=CC=C2NCCCCCCCNC3=CC=CC=CC3=NCCCCCCCN=C2C=C1 yielded a TGI of over 100 µM. With COC(=O)/C(=N\NC(=O)C[N+](C)(C)C)C(C(=O)OC)C(=O)C(=O)Nc1ccccc1C(N)=O (stereo not given) the TGI was over 100 µM. O=C1Nc2nc3ccccc3n2N=C2CCCC12 (stereo not given) was tested, and the TGI was over 100 µM. CC1CN(c2ccc(Cl)cc2)CC(C)OC(=O)O1 (stereo not given) was tested, and the TGI was over 100 µM. Molecule COCC(O)Cn1ccnc1[N+](=O)[O-] (stereo not given) has a TGI of over 100 µM. In the case of OCC1C(/C=C/c2ccoc2)ON2CCCC12 (stereo not given), the TGI was over 100 µM. With Cc1cc(NCCCCCCNc2cc(C)nc3cc(N(C)C)ccc23)c2ccc(N(C)C)cc2n1 the TGI was over 100 µM. With O=C1C2C3C=C4c5ccccc5N(c5ccccc5)C4(C2C(=O)N1c1ccc(Cl)cc1)[C@H]1C(=O)N(c2ccc(Cl)cc2)C(=O)[C@@H]31 (stereo not given in full) the TGI was over 100 µM. With Cc1ccc([N+](=O)[O-])cc1NC(=O)/C(=N/NC(=S)NN)C1SC(=S)NC1=O (stereo not given) the TGI was over 100 µM.

These molecules were tested on SF-268 CNS (assay: NCI-60 cell line screen, 48 h).
Work on N.N.N.N.N.[Cl-].[Co+3].c1ccc(-c2nn[n-]n2)cc1 yielded a GI50 of over 100 µM and a TGI of over 100 µM. Work on C1COCCN1.C1COCCN1.NC1CCCCC1N.[Cl-].[Pt+2] (stereo not given) yielded a GI50 of over 100 µM and a TGI of over 100 µM. COC1OC(CBr)C(OC(=O)c2ccccc2)C(O)C1Br (stereo not given) showed a TGI of over 100 µM. For CCOC1=C2C(=O)OC(=O)C2C2CCCCC2=C1 (stereo not given), the TGI was over 100 µM. Cc1cc2c(C)nn(Cc3ccccc3)c2c(C(N)=O)c1C showed a TGI of over 100 µM. For C=CCNC(=O)N(CCCC(NC(C)=O)C(=O)NCc1ccccc1)Cc1ccccc1 (stereo not given), the TGI was over 100 µM. In the case of c1ccc(C(c2ccccc2)c2cccnc2)cc1, the TGI was over 100 µM. In the case of C1=CC=C2NCCCCCCCNC3=CC=CC=CC3=NCCCCCCCN=C2C=C1, the TGI was over 100 µM. With COC(=O)/C(=N\NC(=O)C[N+](C)(C)C)C(C(=O)OC)C(=O)C(=O)Nc1ccccc1C(N)=O (stereo not given) the TGI was over 100 µM. Molecule O=C1Nc2nc3ccccc3n2N=C2CCCC12 (stereo not given) has a TGI of over 100 µM. O=c1c2ccccc2c(=O)n2n1CC=CC2 gave a TGI of over 100 µM. CC1CN(c2ccc(Cl)cc2)CC(C)OC(=O)O1 (stereo not given) showed a TGI of over 100 µM. COCC(O)Cn1ccnc1[N+](=O)[O-] (stereo not given) showed a TGI of over 100 µM. OCC1C(/C=C/c2ccoc2)ON2CCCC12 (stereo not given) was tested, and the TGI was over 100 µM. Work on Cc1cc(NCCCCCCNc2cc(C)nc3cc(N(C)C)ccc23)c2ccc(N(C)C)cc2n1 yielded a TGI of over 100 µM. In the case of Cc1ccc([N+](=O)[O-])cc1NC(=O)/C(=N/NC(=S)NN)C1SC(=S)NC1=O (stereo not given), the TGI was over 100 µM.

These molecules were tested on SK-MEL-5 melanoma (assay: NCI-60 cell line screen, 48 h).
N.N.N.N.N.[Cl-].[Co+3].c1ccc(-c2nn[n-]n2)cc1 showed a GI50 of over 100 µM and a TGI of over 100 µM. C1COCCN1.C1COCCN1.NC1CCCCC1N.[Cl-].[Pt+2] (stereo not given) showed a GI50 of over 100 µM and a TGI of over 100 µM. Molecule COC1OC(CBr)C(OC(=O)c2ccccc2)C(O)C1Br (stereo not given) has a TGI of over 100 µM. In the case of C[C@]12CCC(=O)C=C1CC[C@@H]1C2CC[C@]2(C)Nc3c(cnn3-c3ccccc3)CC12 (stereo not given in full), the TGI was over 100 µM. O=C(NC(=O)c1cn(CCN(CCO)C(=O)NCCCCCCNC(=O)N(CCO)CCn2cc(C(=O)NC(=O)OCc3ccccc3)c(=O)[nH]c2=O)c(=O)[nH]c1=O)OCc1ccccc1 gave a TGI of over 100 µM. Work on CCOC1=C2C(=O)OC(=O)C2C2CCCCC2=C1 (stereo not given) yielded a TGI of over 100 µM. Cc1cc2c(C)nn(Cc3ccccc3)c2c(C(N)=O)c1C was tested, and the TGI was over 100 µM. C=CCNC(=O)N(CCCC(NC(C)=O)C(=O)NCc1ccccc1)Cc1ccccc1 (stereo not given) gave a TGI of over 100 µM. Molecule c1ccc(C(c2ccccc2)c2cccnc2)cc1 has a TGI of over 100 µM. Work on COC(=O)/C(=N\NC(=O)C[N+](C)(C)C)C(C(=O)OC)C(=O)C(=O)Nc1ccccc1C(N)=O (stereo not given) yielded a TGI of over 100 µM. O=C1Nc2nc3ccccc3n2N=C2CCCC12 (stereo not given) was tested, and the TGI was over 100 µM. O=c1c2ccccc2c(=O)n2n1CC=CC2 gave a TGI of over 100 µM. With CC1CN(c2ccc(Cl)cc2)CC(C)OC(=O)O1 (stereo not given) the TGI was over 100 µM. With Cc1cc(NCCCCCCNc2cc(C)nc3cc(N(C)C)ccc23)c2ccc(N(C)C)cc2n1 the TGI was over 100 µM. O=C1C2C3C=C4c5ccccc5N(c5ccccc5)C4(C2C(=O)N1c1ccc(Cl)cc1)[C@H]1C(=O)N(c2ccc(Cl)cc2)C(=O)[C@@H]31 (stereo not given in full) showed a TGI of over 100 µM. In the case of Cc1ccc([N+](=O)[O-])cc1NC(=O)/C(=N/NC(=S)NN)C1SC(=S)NC1=O (stereo not given), the TGI was over 100 µM.

What follows are molecules tested on SW-620 colon (assay: NCI-60 cell line screen, 48 h).
Molecule N.N.N.N.N.[Cl-].[Co+3].c1ccc(-c2nn[n-]n2)cc1 has a GI50 of over 100 µM and a TGI of over 100 µM. Molecule C1COCCN1.C1COCCN1.NC1CCCCC1N.[Cl-].[Pt+2] (stereo not given) has a GI50 of over 100 µM and a TGI of over 100 µM. In the case of COC1OC(CBr)C(OC(=O)c2ccccc2)C(O)C1Br (stereo not given), the TGI was over 100 µM. For C[C@]12CCC(=O)C=C1CC[C@@H]1C2CC[C@]2(C)Nc3c(cnn3-c3ccccc3)CC12 (stereo not given in full), the TGI was over 100 µM. Molecule O=C(NC(=O)c1cn(CCN(CCO)C(=O)NCCCCCCNC(=O)N(CCO)CCn2cc(C(=O)NC(=O)OCc3ccccc3)c(=O)[nH]c2=O)c(=O)[nH]c1=O)OCc1ccccc1 has a TGI of over 100 µM. Work on CCOC1=C2C(=O)OC(=O)C2C2CCCCC2=C1 (stereo not given) yielded a TGI of over 100 µM. Molecule Cc1cc2c(C)nn(Cc3ccccc3)c2c(C(N)=O)c1C has a TGI of over 100 µM. Work on C=CCNC(=O)N(CCCC(NC(C)=O)C(=O)NCc1ccccc1)Cc1ccccc1 (stereo not given) yielded a TGI of over 100 µM. Molecule c1ccc(C(c2ccccc2)c2cccnc2)cc1 has a TGI of over 100 µM. C1=CC=C2NCCCCCCCNC3=CC=CC=CC3=NCCCCCCCN=C2C=C1 was tested, and the TGI was over 100 µM. In the case of COC(=O)/C(=N\NC(=O)C[N+](C)(C)C)C(C(=O)OC)C(=O)C(=O)Nc1ccccc1C(N)=O (stereo not given), the TGI was over 100 µM. For O=C1Nc2nc3ccccc3n2N=C2CCCC12 (stereo not given), the TGI was over 100 µM. Molecule O=c1c2ccccc2c(=O)n2n1CC=CC2 has a TGI of over 100 µM. Molecule CC1CN(c2ccc(Cl)cc2)CC(C)OC(=O)O1 (stereo not given) has a TGI of over 100 µM. Molecule COCC(O)Cn1ccnc1[N+](=O)[O-] (stereo not given) has a TGI of over 100 µM. For OCC1C(/C=C/c2ccoc2)ON2CCCC12 (stereo not given), the TGI was over 100 µM. Work on Cc1cc(NCCCCCCNc2cc(C)nc3cc(N(C)C)ccc23)c2ccc(N(C)C)cc2n1 yielded a TGI of over 100 µM. O=C1C2C3C=C4c5ccccc5N(c5ccccc5)C4(C2C(=O)N1c1ccc(Cl)cc1)[C@H]1C(=O)N(c2ccc(Cl)cc2)C(=O)[C@@H]31 (stereo not given in full) was tested, and the TGI was over 100 µM. Cc1ccc([N+](=O)[O-])cc1NC(=O)/C(=N/NC(=S)NN)C1SC(=S)NC1=O (stereo not given) gave a TGI of over 100 µM.

What follows are molecules tested on UACC-62 melanoma (assay: NCI-60 cell line screen, 48 h).
In the case of N.N.N.N.N.[Cl-].[Co+3].c1ccc(-c2nn[n-]n2)cc1, the GI50 was over 100 µM and the TGI was over 100 µM. C1COCCN1.C1COCCN1.NC1CCCCC1N.[Cl-].[Pt+2] (stereo not given) was tested, and the GI50 was over 100 µM and the TGI was over 100 µM. Work on COC1OC(CBr)C(OC(=O)c2ccccc2)C(O)C1Br (stereo not given) yielded a TGI of over 100 µM. Molecule C[C@]12CCC(=O)C=C1CC[C@@H]1C2CC[C@]2(C)Nc3c(cnn3-c3ccccc3)CC12 (stereo not given in full) has a TGI of over 100 µM. Work on O=C(NC(=O)c1cn(CCN(CCO)C(=O)NCCCCCCNC(=O)N(CCO)CCn2cc(C(=O)NC(=O)OCc3ccccc3)c(=O)[nH]c2=O)c(=O)[nH]c1=O)OCc1ccccc1 yielded a TGI of over 100 µM. For CCOC1=C2C(=O)OC(=O)C2C2CCCCC2=C1 (stereo not given), the TGI was over 100 µM. Molecule Cc1cc2c(C)nn(Cc3ccccc3)c2c(C(N)=O)c1C has a TGI of over 100 µM. C=CCNC(=O)N(CCCC(NC(C)=O)C(=O)NCc1ccccc1)Cc1ccccc1 (stereo not given) gave a TGI of over 100 µM. c1ccc(C(c2ccccc2)c2cccnc2)cc1 was tested, and the TGI was over 100 µM. In the case of COC(=O)/C(=N\NC(=O)C[N+](C)(C)C)C(C(=O)OC)C(=O)C(=O)Nc1ccccc1C(N)=O (stereo not given), the TGI was over 100 µM. With O=C1Nc2nc3ccccc3n2N=C2CCCC12 (stereo not given) the TGI was over 100 µM. For O=c1c2ccccc2c(=O)n2n1CC=CC2, the TGI was over 100 µM. CC1CN(c2ccc(Cl)cc2)CC(C)OC(=O)O1 (stereo not given) was tested, and the TGI was over 100 µM. For Cc1cc(NCCCCCCNc2cc(C)nc3cc(N(C)C)ccc23)c2ccc(N(C)C)cc2n1, the TGI was 21.4 µM. Work on O=C1C2C3C=C4c5ccccc5N(c5ccccc5)C4(C2C(=O)N1c1ccc(Cl)cc1)[C@H]1C(=O)N(c2ccc(Cl)cc2)C(=O)[C@@H]31 (stereo not given in full) yielded a TGI of over 100 µM. Cc1ccc([N+](=O)[O-])cc1NC(=O)/C(=N/NC(=S)NN)C1SC(=S)NC1=O (stereo not given) gave a TGI of over 100 µM.
